According to patent publication US20170190671A1, “BIS(ARYL)CATECHOL DERIVATIVES AS HERBICIDES” (E I DU PONT DE NEMOURS AND COMPANY, priority 2014, published 2017):

Assays:
Format in all cases: in vivo
Conditions in all cases: scale 0 to 100
[1] = system: winter wheat (Triticum aestivum); assay: Test D preemergence
Excerpt: (§1) Seeds of plant species selected from bluegrass (annual bluegrass, Poa annua), blackgrass (Alopecurus myosuroides), canarygrass (Phalaris minor), chickweed (common chickweed, Stellaria media), cutleaf geranium (Geranium dissectum), galium (catchweed bedstraw, Galium aparine), downy bromegrass (Bromus tectorum), field poppy (Papaver rhoeas), field violet (Viola arvensis), green foxtail (Setaria viridis), deadnettle (henbit deadnettle, Lamium amplexicaule), Italian ryegrass (Lolium multiflorum), kochia (Kochia scoparia), lambsquarters (Chenopodium album), oilseed rape (Brassica napus), pigweed (Amaranthus retroflexus), chamomile (scentless chamomile, Matricaria inodora), Russian thistle (Salsola kali), speedwell (bird's-eye speedwell, Veronica persica), spring barley (Hordeum vulgare), spring wheat (Triticum aestivum), wild buckwheat (Polygonum convolvulus), wild mustard (Sinapis arvensis), wild oat (Avenafatua), wild radish (Raphanus raphanistrum), windgrass (Apera spica-venti), winter barley (Hordeum vulgare), and winter wheat (Triticum aestivum) were planted into a silt loam soil and treated preemergence with test chemicals formulated in a non-phytotoxic solvent mixture which included a surfactant.
(§2) At the same time, these species were planted in pots containing Redi-Earth® planting medium (Scotts Company, 14111 Scottslawn Road, Marysville, Ohio 43041) comprising spaghnum peat moss, vermiculite, wetting agent and starter nutrients and treated with postemergence applications of the test chemicals formulated in the same manner. Plants ranged in height from 2 to 18 cm (1- to 4-leaf stage). Treated plants and controls were maintained in a controlled growth environment for 14 to 21 days after which time all species were compared to controls and visually evaluated. Plant response ratings, summarized in Table D, are based on a scale of 0 to 100 where 0 is no effect and 100 is complete control. A dash (-) response means no test result.

[2] = system: kochia (Kochia scoparia); assay: Test D preemergence
Excerpt: as §1, §2

[3] = system: spring wheat (Triticum aestivum); assay: Test D preemergence
Excerpt: as §1, §2

[4] = system: Russian thistle (Salsola kali); assay: Test D postemergence
Summary of the method: (§3)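 Greenhouse herbicide screen. Pre: silt loam, spray at planting. Post: 1–4 leaf, 2–18 cm. Readout: visual % control (0–100) at 14–21 DAT vs controls.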

[5] = system: pigweed (Amaranthus retroflexus); assay: Test D postemergence
Summary of the method: as §3

[6] = system: green foxtail (Setaria viridis); assay: Test D postemergence
Summary of the method: as §3

[7] = system: chamomile (scentless chamomile, Matricaria inodora); assay: Test D postemergence
Summary of the method: as §3

[8] = system: downy bromegrass (Bromus tectorum); assay: Test D postemergence
Summary of the method: as §3

[9] = system: field violet (Viola arvensis); assay: Test D postemergence
Summary of the method: as §3

[10] = system: canarygrass (Phalaris minor); assay: Test D postemergence
Summary of the method: as §3

[11] = system: kochia (Kochia scoparia); assay: Test D postemergence
Summary of the method: as §3

[12] = system: bluegrass (annual bluegrass, Poa annua); assay: Test D postemergence
Summary of the method: as §3

[13] = system: speedwell (bird's-eye speedwell, Veronica persica); assay: Test D postemergence
Summary of the method: as §3

[14] = system: spring wheat (Triticum aestivum); assay: Test D postemergence
Summary of the method: as §3

[15] = system: cutleaf geranium (Geranium dissectum); assay: Test D postemergence
Summary of the method: as §3

[16] = system: spring barley (Hordeum vulgare); assay: Test D postemergence
Summary of the method: as §3

[17] = system: blackgrass (Alopecurus myosuroides); assay: Test D postemergence
Summary of the method: as §3

[18] = system: chickweed (common chickweed, Stellaria media); assay: Test D postemergence
Summary of the method: as §3

[19] = system: Italian ryegrass (Lolium multiflorum); assay: Test D postemergence
Summary of the method: as §3

[20] = system: field poppy (Papaver rhoeas); assay: Test D postemergence
Summary of the method: as §3

[21] = system: oilseed rape (Brassica napus); assay: Test D postemergence
Summary of the method: as §3

In the case of `FC(F)(F)c1cnc(Oc2c(Br)cccc2Oc2ncc(Cl)cn2)nc1` [Compound 24], the “Plant response rating, Wheat, Winter” value ([1]; 16 g ai/ha) is reported as 0, the “Plant response rating, Wheat, Winter” value ([1]; 31 g ai/ha) is reported as 0 and the “Plant response rating, Wheat, Winter” value ([1]; 62 g ai/ha) is reported as 0. The “Plant response rating, Wheat, Winter” value ([1]; 125 g ai/ha) was 10, the “Plant response rating, Kochia” value ([2]; 16 g ai/ha) was 0 and the “Plant response rating, Kochia” value ([2]; 31 g ai/ha) was 25. For the same compound, the “Plant response rating, Kochia” value ([2]; 62 g ai/ha) was 60, the “Plant response rating, Kochia” value ([2]; 125 g ai/ha) was 100 and the “Plant response rating, Wheat, Spring” value ([3]; 16 g ai/ha) was 0. The “Plant response rating, Wheat, Spring” value ([3]; 31 g ai/ha) was 0, the “Plant response rating, Wheat, Spring” value ([3]; 62 g ai/ha) was 0 and the “Plant response rating, Wheat, Spring” value ([3]; 125 g ai/ha) was 40. For the same compound, the “Plant response rating, Russian Thistle” value ([4]; 16 g ai/ha) was 10, the “Plant response rating, Russian Thistle” value ([4]; 31 g ai/ha) was 25 and the “Plant response rating, Russian Thistle” value ([4]; 62 g ai/ha) was 30. For the same compound, the “Plant response rating, Russian Thistle” value ([4]; 125 g ai/ha) was 55, the “Plant response rating, Pigweed” value ([5]; 16 g ai/ha) was 85 and the “Plant response rating, Pigweed” value ([5]; 31 g ai/ha) was 95. For the same compound, the “Plant response rating, Pigweed” value ([5]; 62 g ai/ha) was 98, the “Plant response rating, Pigweed” value ([5]; 125 g ai/ha) was 100 and the “Plant response rating, Foxtail, Green” value ([6]; 16 g ai/ha) was 15. For the same compound, the “Plant response rating, Foxtail, Green” value ([6]; 31 g ai/ha) was 15, the “Plant response rating, Foxtail, Green” value ([6]; 62 g ai/ha) was 20 and the “Plant response rating, Foxtail, Green” value ([6]; 125 g ai/ha) was 30. For the same compound, the “Plant response rating, Chamomile” value ([7]; 16 g ai/ha) was 5, the “Plant response rating, Chamomile” value ([7]; 31 g ai/ha) was 5 and the “Plant response rating, Chamomile” value ([7]; 62 g ai/ha) was 10. For the same compound, the “Plant response rating, Chamomile” value ([7]; 125 g ai/ha) was 15, the “Plant response rating, Bromegrass, Downy” value ([8]; 16 g ai/ha) was 15 and the “Plant response rating, Bromegrass, Downy” value ([8]; 31 g ai/ha) was 20. The “Plant response rating, Bromegrass, Downy” value ([8]; 62 g ai/ha) was 20, the “Plant response rating, Bromegrass, Downy” value ([8]; 125 g ai/ha) was 25 and the “Plant response rating, Field Violet” value ([9]; 16 g ai/ha) was 65. For the same compound, the “Plant response rating, Field Violet” value ([9]; 31 g ai/ha) was 75, the “Plant response rating, Field Violet” value ([9]; 62 g ai/ha) was 85 and the “Plant response rating, Field Violet” value ([9]; 125 g ai/ha) was 98. The “Plant response rating, Canarygrass” value ([10]; 16 g ai/ha) was 30, the “Plant response rating, Canarygrass” value ([10]; 31 g ai/ha) was 35 and the “Plant response rating, Canarygrass” value ([10]; 62 g ai/ha) was 45. The “Plant response rating, Canarygrass” value ([10]; 125 g ai/ha) was 45, the “Plant response rating, Kochia” value ([11]; 16 g ai/ha) was 40 and the “Plant response rating, Kochia” value ([11]; 31 g ai/ha) was 65. The “Plant response rating, Kochia” value ([11]; 62 g ai/ha) was 80, the “Plant response rating, Kochia” value ([11]; 125 g ai/ha) was 95 and the “Plant response rating, Bluegrass” value ([12]; 16 g ai/ha) was 15. For the same compound, the “Plant response rating, Bluegrass” value ([12]; 31 g ai/ha) was 20, the “Plant response rating, Bluegrass” value ([12]; 62 g ai/ha) was 35 and the “Plant response rating, Bluegrass” value ([12]; 125 g ai/ha) was 40. For the same compound, the “Plant response rating, Speedwell” value ([13]; 16 g ai/ha) was 35, the “Plant response rating, Speedwell” value ([13]; 31 g ai/ha) was 60 and the “Plant response rating, Speedwell” value ([13]; 62 g ai/ha) was 80. The “Plant response rating, Speedwell” value ([13]; 125 g ai/ha) was 90, the “Plant response rating, Wheat, Spring” value ([14]; 16 g ai/ha) was 10 and the “Plant response rating, Wheat, Spring” value ([14]; 31 g ai/ha) was 15. For the same compound, the “Plant response rating, Wheat, Spring” value ([14]; 62 g ai/ha) was 20, the “Plant response rating, Wheat, Spring” value ([14]; 125 g ai/ha) was 20 and the “Plant response rating, Geranium, Cutleaf” value ([15]; 16 g ai/ha) was 20. The “Plant response rating, Geranium, Cutleaf” value ([15]; 31 g ai/ha) was 30, the “Plant response rating, Geranium, Cutleaf” value ([15]; 62 g ai/ha) was 45 and the “Plant response rating, Geranium, Cutleaf” value ([15]; 125 g ai/ha) was 65. The “Plant response rating, Barley, Spring” value ([16]; 16 g ai/ha) was 15, the “Plant response rating, Barley, Spring” value ([16]; 31 g ai/ha) was 20 and the “Plant response rating, Barley, Spring” value ([16]; 62 g ai/ha) was 20. For the same compound, the “Plant response rating, Barley, Spring” value ([16]; 125 g ai/ha) was 25, the “Plant response rating, Blackgrass” value ([17]; 16 g ai/ha) was 25 and the “Plant response rating, Blackgrass” value ([17]; 31 g ai/ha) was 30. The “Plant response rating, Blackgrass” value ([17]; 62 g ai/ha) was 35, the “Plant response rating, Blackgrass” value ([17]; 125 g ai/ha) was 45 and the “Plant response rating, Chickweed” value ([18]; 16 g ai/ha) was 60. For the same compound, the “Plant response rating, Chickweed” value ([18]; 31 g ai/ha) was 70, the “Plant response rating, Chickweed” value ([18]; 62 g ai/ha) was 75 and the “Plant response rating, Chickweed” value ([18]; 125 g ai/ha) was 85. The “Plant response rating, Ryegrass, Italian” value ([19]; 16 g ai/ha) was 15, the “Plant response rating, Ryegrass, Italian” value ([19]; 31 g ai/ha) was 20 and the “Plant response rating, Ryegrass, Italian” value ([19]; 62 g ai/ha) was 25. The “Plant response rating, Ryegrass, Italian” value ([19]; 125 g ai/ha) was 35, the “Plant response rating, Field Poppy” value ([20]; 16 g ai/ha) was 70 and the “Plant response rating, Field Poppy” value ([20]; 31 g ai/ha) was 80. The “Plant response rating, Field Poppy” value ([20]; 62 g ai/ha) was 90, the “Plant response rating, Field Poppy” value ([20]; 125 g ai/ha) was 95 and the “Plant response rating, Oilseed Rape” value ([21]; 16 g ai/ha) was 65. For the same compound, the “Plant response rating, Oilseed Rape” value ([21]; 31 g ai/ha) was 70, the “Plant response rating, Oilseed Rape” value ([21]; 62 g ai/ha) was 75 and the “Plant response rating, Oilseed Rape” value ([21]; 125 g ai/ha) was 80.
